Measurements published in patent US20080071116A1, “Modulators of Lysophosphatidic Acid (Lpa) Signaling and the Use Thereof” (THE BOARD OF REGENTS OF THE UNIVERSITY OF TEXAS SYSTEM, priority 2004, published 2008).
Entries after “also recorded” stand apart in the source; their conditions may differ.

Columns and labels:
DU145 cells [1] = test: calcium mobilization assay in androgen insensitive prostate cancer DU145 cells; assay type: cell-based, human
PC-3 cells [2] = test: lamellipodia formation in PC-3 cells; assay type: cell-based, human; details: 30 μM; for effect on spontaneously activated lamellipodia: PC-3, serum-free, FIGS. 38-40; for inhibition of 18:1 LPA-induced lamellipodia formation: PC-3, FIGS. 42-44
PC-3 cells [3] = test: cell growth (cell viability) in PC-3 cells; assay type: cell-based, human; details: for inhibition of cell growth (cell viability): PC-3
HT29 cells [4] = test: calcium mobilization assay in colon cancer HT29 cells; assay type: cell-based
Protocol: (§1) The procedures for these calcium mobilization assays are as followed: OVCAR3 cells and PC-3 cells were cultured in RPMI 1640 medium with 10% FBS (fetal bovine serum). HT29 cells were cultured in DMEM (high glucose) medium with 10% FBS. All cells were cultured at about 37° C. in a humidified atmosphere with 5% CO2. After starvation in serum-free medium for about 12-24 hours, cells were harvested and loaded with about 1 μM of Indo-1 AM in serum-free medium for about 45 min at 37° C. Cells were washed in PBS and resuspended at 2×10^6 cells/ml in a [Ca^2+]i assay buffer (Sodium chloride, NaCl, about 140 mM, potassium chloride, KCl, about 2 mM, magnesium chloride, MgCl2, about 1 mM, calcium chloride, CaCl2, about 2 mM, in about 25 mM HEPES buffer at pH 7.4 with about 10 mM of glucose). Cytoplasmic [Ca^2+]i was determined at an excitation wavelength of about 331 nm and an emission wavelength of 410 nm using a fluorescence spectrophotometer (Hitachi, F-4000). Approximately 3×10^6 cells were used for [Ca^2+]l determination in a stirred quartz cuvette kept at about 37° C. OMPT or 18:1 LPA was dissolved in about 0.1% BSA/PBS solution and applied immediately to the cells. To test other LPA derivatives of the invention, cells were exposed to the derivatives for about 3 minutes or for a period of various times in time course related experiments before a LPA agonist, such as 18:1 LPA, OMPT, or other LPAs was applied into the cuvette.
(§2) The concentration of calcium mobilization giving the half-maximal response (EC50) was obtained from the concentration-response curve fitted to a sigmoidal logistic equation, with the maximal calcium response set to 100% using the GraphPad Prism. Maximal response value is expressed as mean +/−s.e.m. EC50 value is expressed with 95% confidence.

OVCAR3 cells = test: calcium mobilization assay in ovarian cancer OVCAR3 cells; assay type: cell-based, human; details: OVCAR3
Protocol: as §1, §2

PC-3 cells [5] = test: calcium mobilization assay in androgen insensitive prostate cancer PC-3 cells; assay type: cell-based, human
Protocol: as §1, §2

ERK1/2 = ERK1/2 (p42/p44-MAPK) phosphorylation immunoblot in prostate cancer cells; assay type: cell-based, human
Protocol: (§3) The cells were then lysed in SDA sample buffer or ice-cold X-100 lysis buffer (1% Triton X-100, 50 mM HEPES [pH7.4], 150 mM NaCl, 1.5 mM MgCl2, 1 mM EGTA, 10% glycerol, 100 mM NaF, 10 mM Na pyrophosphate, and 1 mM aprotinin). Total cellular protein was resolved by SDS/PAGE, transferred to immobilon [poly (vinylidene difluoride)], and immunoblotted with antibodies following the protocols provided by manufactures. Immunocomplexes were visualized with an enhanced chemiluminescence detection kit (Amersham Pharmacia) using horseradish peroxidase-conjugated secondary antibodies (Bio-Rad).

[6] = system: vasodilator-stimulated protein (VASP); test: VASP phosphorylation in PC-3 cells; assay type: cell-based, human
Protocol: as §3
To determine the mechanisms regulating LPA-induced cell migration, actin filament binding proteins that link receptor signaling to lamellipodia formation were evaluated.

PC-3 cells [7] = test: membrane ruffling and cell migration in PC-3 cells; assay type: cell-based, human
DU145 cells [8] = test: cell migration of DU145 cells; assay type: cell-based, human
DU145 cells [9] = test: cell growth (cell viability) in DU145 cells; assay type: cell-based, human
Jurkat T cells = details: human Jurkat T cells; Xu et al. 1995; cited from earlier work
LPA1 receptor = LPA1 receptor (Homo sapiens, UniProt Q92633); test: calcium mobilization in Sf9 insect cells expressing LPA1; assay type: cell-based; details: Sf9 cells expressing LPA1
AKT = AKT phosphorylation immunoblot in prostate cancer cells; assay type: cell-based, human; details: PC-3 and DU145 cells
Protocol: as §3

p38-MAPK = p38-MAPK activation, phosphospecific antibodies; assay type: cell-based, human; details: PC-3 and DU145 cells
Protocol: as §3

PKA = PKA activation in PC-3 cells; assay type: cell-based, human
PC-3 cells [10] = test: cellular proliferation and growth factor withdrawal-induced apoptosis; assay type: cell-based, human
HT29 cells [11] = test: lamellipodia formation in colon cancer HT29 cells; assay type: cell-based; details: HT29, FIG. 26
LPA3 receptor = target: T1, LPA3 receptor (Homo sapiens, UniProt Q9UBY5); test: calcium mobilization in Sf9 insect cells expressing LPA3; assay type: cell-based; design: expressed in transfected cells; host or cells: Sf9 insect cells
T1 sequence (Q9UBY5 1-353): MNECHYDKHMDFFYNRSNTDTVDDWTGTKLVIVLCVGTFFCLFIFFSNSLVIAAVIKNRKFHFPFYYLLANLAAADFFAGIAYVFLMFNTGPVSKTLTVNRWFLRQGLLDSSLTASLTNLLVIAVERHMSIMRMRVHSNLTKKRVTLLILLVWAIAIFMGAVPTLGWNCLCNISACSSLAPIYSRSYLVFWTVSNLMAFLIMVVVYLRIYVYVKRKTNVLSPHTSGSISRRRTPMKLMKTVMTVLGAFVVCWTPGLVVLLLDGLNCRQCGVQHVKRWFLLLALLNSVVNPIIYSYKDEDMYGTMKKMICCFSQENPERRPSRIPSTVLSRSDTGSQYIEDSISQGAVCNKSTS

LPA2 receptor = LPA2 receptor (Homo sapiens, UniProt Q9HBW0); test: calcium mobilization in Sf9 insect cells expressing LPA2; assay type: cell-based; design: expressed in transfected cells; host or cells: Sf9 insect cells; details: Sf9 cells expressing LPA2; read-out: EC50 of increase in intracellular calcium concentration
[12] = in the presence of 10 μM of 18:1 LPA, FIGS. 45-47

Chain of LPA1 receptor (Q92633 whole entry): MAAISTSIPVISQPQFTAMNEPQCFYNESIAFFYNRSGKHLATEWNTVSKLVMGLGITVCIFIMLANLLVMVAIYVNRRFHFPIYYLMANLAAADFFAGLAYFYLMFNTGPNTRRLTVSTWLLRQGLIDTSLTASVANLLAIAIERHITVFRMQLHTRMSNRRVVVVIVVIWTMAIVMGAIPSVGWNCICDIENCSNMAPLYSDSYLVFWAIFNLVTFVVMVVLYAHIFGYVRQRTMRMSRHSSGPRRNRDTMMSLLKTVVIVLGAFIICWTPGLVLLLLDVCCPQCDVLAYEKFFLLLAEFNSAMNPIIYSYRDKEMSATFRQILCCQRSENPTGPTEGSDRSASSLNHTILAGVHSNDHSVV
Chain of LPA2 receptor (Q9HBW0 whole entry): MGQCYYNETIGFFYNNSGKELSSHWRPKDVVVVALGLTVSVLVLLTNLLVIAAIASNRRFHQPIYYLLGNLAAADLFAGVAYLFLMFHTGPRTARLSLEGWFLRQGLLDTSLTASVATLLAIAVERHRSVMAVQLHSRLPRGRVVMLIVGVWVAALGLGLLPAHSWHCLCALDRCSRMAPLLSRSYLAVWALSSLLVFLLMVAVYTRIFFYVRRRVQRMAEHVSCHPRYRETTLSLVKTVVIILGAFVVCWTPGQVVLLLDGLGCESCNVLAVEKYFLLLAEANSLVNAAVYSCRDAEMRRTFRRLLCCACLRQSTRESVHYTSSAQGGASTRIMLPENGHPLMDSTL

## CCCCCCCCCCCCCC(=O)OC[C@@H](O)COP(=O)(O)OCC(O)CO (mixture of isomers) [14:0 LPG, 1-myristoyl-2-hydroxy-sn-glycero-3-[phospho-rac-(1-glycerol)]]
DU145 cells [1]
  inhibition of 14:0 LPA-induced calcium mobilization: inhibited calcium mobilization; also recorded: effective inhibitor/antagonist
PC-3 cells [2]
  effect on spontaneously activated lamellipodia: negligible effect
  inhibition of 18:1 LPA-induced lamellipodia formation: no inhibition
PC-3 cells [3]; [12]
  inhibition of cell growth (cell viability): inhibition of cell growth (cell viability) at high concentrations

## D-3-deoxy-phosphophatidyl-myo-inositol ether lipid [DPIEL]
HT29 cells [4]; HT29 cells (express only LPA2), FIG. 6
  inhibition of (18:1) LPA-induced calcium mobilization: does not inhibit calcium mobilization
OVCAR3 cells; DPIEL about 10 μM exposed group (control about 123.5+/−16.4 nM)
  maximum calcium response to OMPT: about 136.1+/−16.6 nM
OVCAR3 cells; about 20 μM DPIEL
  suppression of the maximum response to OMPT: about 36%
PC-3 cells [5]; FIG. 7
  suppression of maximum calcium mobilization induced by 18:1 LPA: about 56%
ERK1/2; LNCaP cells, FIG. 8B
  inhibition of EGF-induced phosphorylation of ERK1/2: fails to reduce EGF-induced phosphorylation of ERK1/2
ERK1/2; PC-3 cells, DPIEL about 30 minutes, FIG. 8A
  inhibition of ERK1/2 phosphorylation activated by 18:1 LPA and 14:0 LPA: inhibits phosphorylation of the extracellular signal-regulating kinase (ERK1/2)
[6]
  inhibition of VASP phosphorylation: inhibits phosphorylation of vasodilator stimulated protein (VASP)
PC-3 cells [7]
  inhibition of LPA-induced cell migration: inhibits
DU145 cells [8]
  inhibition of LPA-induced cell migration: inhibits

## O=S(=O)(NCCNC/C=C/c1ccc(Br)cc1)c1cccc2cnccc12 [H-89]
PC-3 cells [7]
  inhibition of membrane ruffling and cell migration induced by 18:1 LPA and 14:0 LPA: completely inhibited membrane ruffling and cell migration

## CCCCCCCC/C=C\CCCCCCCC(=O)OC[C@@H](O)COP(=O)(O)OCC(O)CO (mixture of isomers) [18:1 LPG, 1-oleoyl-2-hydroxy-sn-glycero-3-[phospho-rac-(1-glycerol)]]
HT29 cells [4]; HT29 cells (only express LPA2), FIGS. 21-22
  inhibition of (18:1) LPA-induced calcium mobilization: effective inhibitors/antagonists
PC-3 cells [5]; FIGS. 19-20
  inhibition of OMPT-induced calcium mobilization: effective inhibitor/antagonist
DU145 cells [1]; 10 and 30 μM in FIGS. 15-18
  antagonism of 18:1 LPA-induced calcium mobilization: completely antagonized
DU145 cells [1]; 10 and 30 μM in FIGS. 15-18, listed as 18:1-acyl-LPG
  antagonism of 18:1 LPA-induced calcium mobilization: shifted to the right
PC-3 cells [2]
  effect on spontaneously activated lamellipodia: inhibit spontaneously activated lamellipodia
  inhibition of 18:1 LPA-induced lamellipodia formation: inhibition of 18:1 LPA-induced LPA2 receptor mediated lamellipodia formation
PC-3 cells [3]; [12]
  inhibition of cell growth (cell viability): inhibition of cell growth (cell viability) at high concentrations
PC-3 cells [3]; without LPA, FIGS. 46-47
  inhibition of cell growth (cell viability): inhibition of cell growth (cell viability) at high concentrations
PC-3 cells [3]; PC-3 cells
  reduction of cell viability / cell growth: reduced cell viability
DU145 cells [9]
  reduction of cell viability / cell growth: reduced cell viability

## lysophosphatidyl glycerol [LPG]
Jurkat T cells
  inhibition of LPA signaling: inhibitor of LPA signaling

## CCCCCCCCCCCCCC(=O)OC[C@@H](O)COP(=O)(O)O [14:0 LPA, reference compound]
PC-3 cells [5]
  EC50: ~98 nM
LPA1 receptor
  elevation of intracellular calcium: no elevated intracellular calcium concentration is observed
ERK1/2; PC-3 and DU145 cells
  activation of p42/p44-MAPK: efficiently activates p42/p44-MAPK
AKT
  activation of AKT: only marginal effects
p38-MAPK
  activation of p38-MAPK: only marginal effects
[6]
  induction of VASP phosphorylation at Ser157 PKA site: induced phosphorylation
PKA
  activation of PKA: efficiently activate PKA
PC-3 cells [10]
  cellular proliferation and prevention of growth factor withdrawal-induced apoptosis: does not increase cellular proliferation
PC-3 cells [7]
  stimulation of membrane ruffling and cell migration: stimulate membrane ruffling and cell migration
HT29 cells [11]
  activation of lamellipodia: strong activator of lamellipodia
LPA3 receptor
  calcium mobilization: no elevated intracellular calcium concentration is observed
LPA2 receptor
  EC50: 0.1 nM

## EGF: epidermal growth factor
[6]
  induction of VASP phosphorylation at Ser157 PKA site: Neither OMPT nor EGF increased phosphorylation of VASP
